The values that follow come from publication PMC4060151 (Chemistry & biology, 2014).

The test system of test [1] is stationary M. tuberculosis mc^26020. Description: Time-dependent killing, stationary cells. In kind it is cell-based. The conditions noted are these: 10 ×MIC; average of three biological replicates (Fig. 3B).
For a further test, the system named is ClpC1. Particulars: cited from earlier work.
In another test the test system is cell wall biosynthesis. The conditions noted are these: ref Iwatsuki et al., 2006; cited from earlier work.

For the compound `CO[C@H]1/C=C/O[C@@]2(C)Oc3c(C)c(O)c4c(O)c(c(/C=N/N5CCN(C)CC5)c(O)c4c3C2=O)NC(=O)/C(C)=C\C=C\[C@H](C)[C@H](O)[C@@H](C)[C@@H](O)[C@@H](C)[C@H](OC(C)=O)[C@@H]1C` [rifampicin], the “killing of stationary phase cells” value in test [1] is “characteristic biphasic killing (Fig. 3B) and a significant number of persister cells survive exposure”.

For the compound cyclomarin A, in the test on ClpC1, the “binding to ClpC1” value was “binds to ClpC1” and the effect on proteolysis result is given as “proposed to cause excessive proteolysis”. On to Lariatin A, for which, in the test with cell wall biosynthesis, the mechanism of action result is reported as “inhibits cell wall biosynthesis”.
